Assay results taken from patent US8883782B2, “Spiro-tetracyclic ring compounds as beta-secretase modulators and methods of use” (Amgen Inc., priority 2010, dated 2014).

Columns and labels:
[1] = molecular target: Beta Secretase enzyme (BACE) (Homo sapiens, UniProt P56817); assay: In vitro enzymatic BACE FRET (fluorescence resonance energy transfer) assay; assay type: biochemical; conditions: average IC50, enzyme assay; read-out: BACE 1 FRET assay
Procedure, shortened: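 Buffer 0.05 M acetate pH 4.2, 10% DMSO final, 100 uM genapol (sub-CMC); start with 50 nM FRET substrate; 1 h incubation; Tris stop; fluorescence read.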

[2] = system: Aβ40 in conditioned medium of cells stably expressing Amyloid Precursor Protein (APP); assay: In vitro BACE cell-based assay (Aβ40 in conditioned medium, sandwich ELISA); conditions: Homo sapiens, HEK293, average IC50; read-out: HEK cell assay
Procedure, shortened: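 Step two: 10-point compound titration added, starting 100 μM or 10 μM, 0.1% DMSO. Step three: medium Aβ40 measured by ELISA, capture 3 h and detection 2 h at 4° C, TRF read.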

Chain of Beta Secretase enzyme (BACE) (P56817 46-501, species assumed): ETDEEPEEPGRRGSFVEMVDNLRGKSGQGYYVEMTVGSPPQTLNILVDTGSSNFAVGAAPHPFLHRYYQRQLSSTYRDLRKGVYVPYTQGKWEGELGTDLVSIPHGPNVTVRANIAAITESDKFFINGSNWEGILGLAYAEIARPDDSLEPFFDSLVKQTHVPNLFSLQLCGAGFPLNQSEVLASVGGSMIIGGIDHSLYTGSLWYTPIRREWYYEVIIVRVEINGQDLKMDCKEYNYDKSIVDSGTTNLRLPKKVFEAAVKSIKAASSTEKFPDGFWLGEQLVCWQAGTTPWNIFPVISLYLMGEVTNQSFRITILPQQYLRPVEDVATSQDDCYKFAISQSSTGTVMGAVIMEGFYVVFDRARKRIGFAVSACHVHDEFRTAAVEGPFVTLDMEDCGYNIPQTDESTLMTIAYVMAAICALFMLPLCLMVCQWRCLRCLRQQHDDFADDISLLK

Structure (SMILES) | IC50 [1] | IC50 [2]
NC1=N[C@@]2(CO1)c1cc(-c3cccnc3F)ccc1Oc1cc(OC(F)(F)F)c(Br)cc12 [Example 989, (4S)-2′-bromo-7′-(2-fluoro-3-pyridinyl)-3′-(trifluoromethoxy)spiro[1,3-oxazole-4,9′-xanthen]-2-amine] | 2380 nM | ≥ 10000 nM
NC1=N[C@]2(CO1)c1cc(-c3cccnc3F)ccc1Oc1cc(OC(F)(F)F)c(-c3ccnc(F)c3)cc12 [Example 990, (4R)-7′-(2-fluoro-3-pyridinyl)-2′-(2-fluoro-4-pyridinyl)-3′-(trifluoromethoxy)spiro[1,3-oxazole-4,9′-xanthen]-2-amine] | 8220 nM | 7220 nM
NC1=N[C@]2(CS1)c1cc(Br)ccc1Oc1cnc(Cl)cc12 [Example 993, (5R)-7-bromo-3-chlorospiro[chromeno[2,3-c]pyridine-5,4′-[1,3]thiazol]-2′-amine] | 11600 nM | ≥ 10000 nM
CC1(C#Cc2cc3c(cn2)Oc2ccc(-c4cccnc4F)cc2[C@@]32CSC(N)=N2)COC1 [Example 995, (5S)-7-(2-fluoro-3-pyridinyl)-3-((3-methyl-3-oxetanyl)ethynyl)spiro[chromeno[2,3-c]pyridine-5,4′-[1,3]thiazol]-2′-amine] | 0.8 nM | 15 nM
NC1=N[C@]2(CS1)c1cc(-c3cccnc3F)ccc1Oc1c2cc(C2=CCOCC2)nc1F [Example 998, (5R)-3-(3,6-dihydro-2H-pyran-4-yl)-1-fluoro-7-(2-fluoro-3-pyridinyl)spiro[chromeno[2,3-c]pyridine-5,4′-[1,3]thiazol]-2′-amine] | 13.5 nM | 218 nM
COc1cc2c(c(F)c1F)Oc1ccc(Br)cc1[C@@]21COC(N)=N1 [Example 1003, (4S)-7′-bromo-3′,4′-difluoro-2′-methoxyspiro[1,3-oxazole-4,9′-xanthen]-2-amine] | 1090 nM | ≥ 10000 nM
COc1cc2c(c(F)c1F)Oc1ccc(-c3cccnc3F)cc1[C@]21COC(N)=N1 [Example 1004, (4R)-3′,4′-difluoro-7′-(2-fluoro-3-pyridinyl)-2′-methoxyspiro[1,3-oxazole-4,9′-xanthen]-2-amine] | 5560 nM | ≥ 10000 nM
COc1cc2c(c(F)c1F)Oc1ccc(-c3cccnc3F)cc1[C@@]21COC(N)=N1 [Example 1005, (4S)-3′,4′-difluoro-7′-(2-fluoro-3-pyridinyl)-2′-methoxyspiro[1,3-oxazole-4,9′-xanthen]-2-amine] | 5.8 nM | 1000 nM
CC(C)(C#N)COc1cc2c(c(F)c1F)Oc1ccc(-c3cccnc3)cc1[C@]21COC(N)=N1 [Example 1008, 3-(((4R)-2-amino-3′,4′-difluoro-7′-(3-pyridinyl)spiro[1,3-oxazole-4,9′-xanthen]-2′-yl)oxy)-2,2-dimethylpropanenitrile] | 17.9 nM | 775 nM

Results, then the compound that gave them:

IC50 [1] | IC50 [2] | Structure (SMILES)
193 nM | 1090 nM | NC1=N[C@@]2(CO1)c1cc(-c3cccnc3F)ccc1Oc1cc(OC(F)(F)F)c(-c3ccnc(F)c3)cc12 [Example 991, (4S)-7′-(2-fluoro-3-pyridinyl)-2′-(2-fluoro-4-pyridinyl)-3′-(trifluoromethoxy)spiro[1,3-oxazole-4,9′-xanthen]-2-amine]
42.5 nM | 1830 nM | NC1=N[C@]2(CS1)c1cc(-c3cccnc3F)ccc1Oc1cnc(-c3ccnc(F)c3)cc12 [Example 992, (5R)-7-(2-fluoro-3-pyridinyl)-3-(2-fluoro-4-pyridinyl)spiro[chromeno[2,3-c]pyridine-5,4′-[1,3]thiazol]-2′-amine]
18100 nM | ≥ 10000 nM | COc1cc2c(c(F)c1F)Oc1ccc(Br)cc1[C@]21COC(N)=N1 [Example 1002, (4R)-7′-bromo-3′,4′-difluoro-2′-methoxyspiro[1,3-oxazole-4,9′-xanthen]-2-amine]
1.9 nM | 24 nM | NC1=N[C@@]2(CO1)c1cc(-c3cccnc3)ccc1Oc1c2cc(C2=CCOCC2)c(F)c1F [Example 1007, (4S)-2′-(3,6-dihydro-2H-pyran-4-yl)-3′,4′-difluoro-7′-(3-pyridinyl)spiro[1,3-oxazole-4,9′-xanthen]-2-amine]
